Legend:
Format in all cases: cell-based
[1] = test system: Human sensory neurons derived from hiPS cells; experiment: CGRP release by sensory neurons after cortisol or histamine challenge (ELISA); conditions: for CGRP release by sensory neurons: stress molecule alone at 10 μM, 30 minutes of stimulation, vs control
Method: Human sensory neurons are derived from hiPS cells (human induced Pluripotent Stem cells). hiPS cells are obtained by transfecting human fibroblasts cells. Cells were plated in 96 wells plates coated by a thin layer of Matrigel® (Corning; ref: 354277; batch: 9238002) in a differentiation medium (M1). Cells were incubated at 37° C. and 5% CO2 for 6 days and culture medium was changed every 2 days. After 9 days of differentiation, medium M1 was replaced by a maturation medium for human sensory neurons (M2). Cells were incubated at 37° C. and 5% CO2 for 6 days and culture medium was changed every 2 days. […] H-2700; batch: 1069755) was added. […] Culture was incubated for 24 hours at 37° C. and 5% of CO2. After 2 or 24 hours of incubation, the culture plates were stimulated by cortisol (Sigma Aldrich; ref: H0888; batch: SLB[…]) or histamine, each at 10 μM (Tocris; ref: 3545; batch: 1A/18942). After 30 minutes of stimulation, supernatants were removed and stored at -80° C. The amount of CGRP (antibodies-online; ref: abx257902; batch: E2001551F) released in supernatant after 30 minutes of stimulation were dosed by ELISA and compared to non-treated control. All values were expressed as mean +/-s.e.mean.

Human hair follicles [2] = experiment: Hair follicle cell proliferation (Ki-67) and apoptosis (TUNEL) under cortisol; conditions: cortisol alone, five days, vs control
Method: Human hair follicles were removed from a fresh scalp/face skin biopsy of a person. After the depilation, isolated follicles were selected by microscopic observation to select only ones in anagen phase. They were randomized and placed in supplemented William's E medium (Penicillin/Streptomycin, L-glutamine (2 mM), hydrocortisone (0.027 μM), sodium selenite (10 ng/ml), transferrin (10 μg/ml) and insulin (10 μg/ml) and indicated treatment (control, cortisol at 100 μM, PVE at 50 or 150 ppm in presence or not of cortisol). To perform immunostaining, slide deparaffinization was manually conducted using successive baths of solvent. Heat-induced epitope retrieval was performed using the Dako Envision Flex solution (Agilent, Santa Clara, US). Ki-67 (dilution 1/500).Cell proliferation was studied by Ki-67 immunostainings realized on paraffin sections (mouse monoclonal anti-Ki-67, Dako™ M7240, Santa Clara, US), The apoptosis was studied by using click-iT® Plus Alexa 488 TUNEL assay (ThermoScientific™, C10617, Waltham, MA, USA) following supplier instructions. After TUNEL assay and Ki67 antibody incubation, slices were incubated one hour at room temperature with an Alexa 568 coupled secondary antibody (A11004, Thermo Fischer Scientific™, Waltham, MA, USA). Nuclei counterstain was done using Hoechst (Invitrogen, ref H3570) at 1/5000 for 5 minutes at RT. Slides were mounted in aqueous medium.

Human hair follicles [3] = experiment: Hair follicle pigmentation, Masson's Fontana staining; conditions: cortisol alone, 5 days
Method: (§1) Human hair follicles were removed from a fresh scalp/face skin biopsy of a person. After the depilation, isolated follicles were selected by microscopic observation to select only ones in anagen phase. They were randomized and placed in supplemented William's E medium (Penicillin/Streptomycin, L-glutamine (2 mM), hydrocortisone (0.027 μM), sodium selenite (10 ng/ml), transferrin (10 μg/ml) and insulin (10 μg/ml) and indicated treatment (control, cortisol at 100 μM, PVE at 50 or 150 ppm in presence or not of cortisol). After overnight fixation in paraformaldehyde solution (MM France, Brignais, France), samples were dehydrated and impregnated in paraffin using a dehydration automat (STP120 ThermoScientific™ Waltham, MA, USA). The Then, sections of […] were mounted on Superfrost® Gold slides before proceeding to Masson's Fontana staining. This staining is used to visualize melanin granules. Melanin is a non-lipid pigment, brown to black, present physiologically in hair, eyes, and skin.

Human hair follicles [4] = experiment: Hair follicle structure, HES staining; conditions: cortisol 100 μM alone, 5 days
Method: as §1, with “USA).” for “USA). The”, “Hematoxylin-eosin-saffron (HES)” for “Masson's Fontana”, “Hematoxylin-eosin-saffron (HES)” for “This staining is used to visualize melanin granules. Melanin”, “trichromatic coloration using nuclear, cytoplasmic” for “non-lipid pigment, brown to black, present physiologically in hair, eyes,”, “matrix colorants, usually used for the visualization of tissues.” for “skin.”

Human hair follicles [5] = experiment: Growth of isolated human hair follicles under cortisol (ex vivo culture, 5 days); conditions: cortisol 100 μM alone, day 1 to day 5
Method: Human hair follicles were removed from a fresh scalp/face skin biopsy of a person. After the depilation, isolated follicles were selected by microscopic observation to select only ones in anagen phase. They were randomized and placed in supplemented William's E medium (Penicillin/Streptomycin, L-glutamine (2 mM), hydrocortisone (0.027 μM), sodium selenite (10 ng/ml), transferrin (10 μg/ml) and insulin (10 μg/ml) and indicated treatment (control, cortisol at 100 μM, PVE at 50 or 150 ppm in presence or not of cortisol). Follicles were cultured at 37° C. under 5% CO2 and a relative humidity >95%. Medium was changed at day 1 and 3. The growth of isolated follicles was monitored for 5 days by daily photography using a stereomicroscope device (Carl Zeiss, Microscopy, France). The length of each follicle was measured using ImageJ software.

[6] = test system: hair follicles dermal papilla cells (HFDPCs); experiment: VEGF secretion by HFDPC under cortisone (ELISA); conditions: cortisone 200 μM alone, 60 h
Method: (§2) 2.3. Evaluation of the ability of PVE to counteract the glucocorticoids-induced decrease proliferation of hair follicles cells and to restore the VEGF secretion HFDP cells were maintained in Follicle Dermal Papilla Cell Growth Medium (C-26501, PromoCell, Heidelberg, Germany) at 37° C., under 5%, CO2. Cells at passage 4 were plated in 24 well plate at 2×10^4 cells/well. HFDPCs at 60% confluence was pretreated with 5, 10 or 20 ppm of PVE for 2 h, and subsequently treated with 200 μM cortisone. After incubation for 60 h, cell culture supernatant was recovered, and secreted VEGF was measured using ELISA kit. For the cell proliferation assay, the WST test was used (EZ-Cytox, DogenBio, Korea). Absorbance was measured at 450 nm wavelength using microplate spectrophotometry.

[7] = test system: hair follicles dermal papilla cells (HFDPCs); experiment: HFDPC proliferation under cortisone (WST test); conditions: cortisone 200 μM alone, 60 h
Method: as §2

[8] = test system: Human sensory neurons derived from hiPS cells; experiment: Oxytocin release by sensory neurons after cortisol or histamine challenge (ELISA); conditions: 2 h pre-incubation
Method: Human sensory neurons are derived from hiPS cells (human induced Pluripotent Stem cells). hiPS cells are obtained by transfecting human fibroblasts cells. Cells were plated in 96 wells plates coated by a thin layer of Matrigel® (Corning; ref: 354277; batch: 9238002) in a differentiation medium (M1). Cells were incubated at 37° C. and 5% CO2 for 6 days and culture medium was changed every 2 days.
After 9 days of differentiation, medium M1 was replaced by a maturation medium for human sensory neurons (M2). Cells were incubated at 37° C. and 5% CO2 for 6 days and culture medium was changed every 2 days. On day 18 of culture (24 hours of pre-incubation) or day 19 of culture (2 hours of pre-incubation,) the medium was removed, and fresh medium with PVE or reference compound β-endorphin (Bachem; ref: H-2700; batch: 1069755) was added. The following conditions were done: control medium, control medium containing PVE at 50, 100 or 150 ppm, control medium containing beta-endorphin at 10 μM. Culture was incubated for 24 hours at 37° C. and 5% of CO2. After 2 or 24 hours of incubation, the culture plates were stimulated by cortisol (Sigma Aldrich; ref: H0888; batch: SLBN5690V) or histamine, each at 10 μM (Tocris; ref: 3545; batch: 1A/18942). After 30 minutes of stimulation, supernatants were removed and stored at −80° C. […]

Molecule: NCCc1c[nH]cn1 [histamine]
- CGRP release by sensory neurons [1]: strong increase of CGRP release

Molecule: C[C@]12CCC(=O)C=C1CC[C@@H]1[C@@H]2[C@@H](O)C[C@@]2(C)[C@H]1CC[C@]2(O)C(=O)CO [cortisol]
- apoptosis of hair follicle cells (TUNEL) (Human hair follicles [2]): induces apoptosis in cells
- hair follicle cell proliferation (Ki-67) (Human hair follicles [2]): reduced cell proliferation
- CGRP release by sensory neurons [1]: strong increase of CGRP release
- hair follicle pigmentation (melanin granules) (Human hair follicles [3]): almost all the melanin granules disappeared
- hair follicle structure (dermal sheath, hair matrix) (Human hair follicles [4]): dramatically altered
- hair follicle growth (length) (Human hair follicles [5]): strongly reduced

Molecule: C[C@]12CCC(=O)C=C1CC[C@@H]1[C@@H]2C(=O)C[C@@]2(C)[C@H]1CC[C@]2(O)C(=O)CO [cortisone]
- VEGF secretion by HFDPC [6]: reduced VEGF production
- HFDPCs proliferation [7]: inhibits the HFDPCs proliferation

Molecule: β-endorphin (YGGFMTSEKSQTPLVTLFKNAIIKNAYKKGE; Beta-endorphin; UniProt P01189 237-267, looked up)
- oxytocin release by sensory neurons ([8]; then cortisol 10 μM challenge): no effect on the oxytocin release
- oxytocin release by sensory neurons ([8]; then histamine 10 μM challenge): no effect on the oxytocin release
- CGRP release by sensory neurons (sensory neuron excitation) ([1]; 2 h or 24 h pre-incubation, PVE 50, 100 or 150 ppm, beta-endorphin 10 μM, then cortisol 10 μM, 30 minutes): reduce the neuronal excitation at level similar to the control condition

— patent publication US20240374667A1, “Prunella vulgaris extract and use thereof” (Clariant International Ltd, priority 2021, published 2024)
